Assay [1] has as its target T1, casein kinase 1 delta (human CK1 delta PV3665) (Homo sapiens, UniProt P48730).
T1 construct: purchased Invitrogen Corporation PV3665
The experiment in a line: FRET fluorescence test (Z'Lyte kinase assay kit), phosphorylation of peptide substrate SER/THR 11. The conditions noted are these: peptide substrate 2 μM, ATP at 4 times the KM. The class given is biochemical. The source says:
The capacity of the compounds of the invention to inhibit the phosphorylation of casein by casein kinase 1 epsilon and casein kinase 1 delta can be evaluated using a FRET (Fluorescence Resonance Energy Transfer) fluorescence test by means of the “Z′Lyte™ kinase assay kit” (reference PV3670; Invitrogen Corporation™) according to the supplier's instructions.
The casein kinases 1 used are obtained from Invitrogen Corporation (human CK1 epsilon PV3500 and human CK1 delta PV3665).
A peptide substrate, labelled at both ends with a fluorophore donor group (coumarin) and a fluorophore acceptor group (fluorescein) constituting a FRET system is phosphorylated in the presence of ATP by casein kinase 1 epsilon or delta in the presence of increasing concentrations of compounds of the invention.
The mixture is treated with a site-specific protease that specifically cleaves the peptide substrate so as to form two fluorescent fragments having a large fluorescence emission ratio.
The fluorescence observed is thus related to the capacity of the products of the invention to inhibit the phosphorylation of the peptide substrate by casein kinase 1 epsilon or casein kinase 1 delta. […]
The emitted fluorescence is measured at wavelengths of 445 and 520 nm (excitation at 400 nm).

The target in assay [2] is T2, casein kinase 1 epsilon (CK1 epsilon) (Homo sapiens, UniProt P49674).
T2 construct: Invitrogen Corporation (alternative)
T2 sequence (P49674 whole entry): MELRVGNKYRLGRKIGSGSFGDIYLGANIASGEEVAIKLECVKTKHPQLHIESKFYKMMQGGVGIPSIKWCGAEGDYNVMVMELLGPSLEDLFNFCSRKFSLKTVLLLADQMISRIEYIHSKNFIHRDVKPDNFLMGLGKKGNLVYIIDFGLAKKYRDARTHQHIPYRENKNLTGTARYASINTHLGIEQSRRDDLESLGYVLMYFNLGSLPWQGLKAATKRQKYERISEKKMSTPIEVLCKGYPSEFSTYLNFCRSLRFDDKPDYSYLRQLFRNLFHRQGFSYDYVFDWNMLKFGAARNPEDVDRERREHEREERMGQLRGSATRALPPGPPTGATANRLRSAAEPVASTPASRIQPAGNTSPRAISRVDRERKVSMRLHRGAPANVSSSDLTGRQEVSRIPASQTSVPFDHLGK
The assay is described as follows: Filter-plate assay of ATP-33P: inhibition of phosphorylation of casein by CK1 epsilon. The note with it: casein substrate, 10 μM ATP, 2 hours at ambient temperature. Type of assay: biochemical. As for the experimental part: The capacity of the compounds of the invention to inhibit the phosphorylation of casein by casein kinase 1 epsilon and delta can be evaluated according to the procedure described in document US 2005/0131012.
Filter-Plate Assay of ATP-^33P for the Screening of CK1 Epsilon Inhibitors:
The effect of the compounds on inhibition of the phosphorylation of casein by the enzyme casein kinase 1 epsilon (CK1 epsilon) is measured using a casein assay with filtration of ATP-^33P in vitro.
Casein kinase 1 epsilon (0.58 mg/ml) is obtained via fermentation and purification processes carried out according to methods well known to those skilled in the art, or may also be obtained from Invitrogen Corporation™ (human CK1 epsilon).
The compounds are tested at five different concentrations so as to generate IC50 values, i.e. the concentration at which a compound is capable of inhibiting the enzymatic activity by 50%, or alternatively the % inhibition at a concentration of 10 micromolar.
“U”-bottomed Falcon plates are prepared by placing 5 μl of solutions of the compounds according to the invention at concentrations of 10, 1, 0.1, 0.01 or 0.001 μM in various wells. The solutions of the compounds according to the invention at these various concentrations are prepared by diluting in a test buffer (50 mM Tris, pH 7.5, […], 2 mM DTT and 1 mM EGTA) a stock solution in DMSO at a concentration of 10 mM. Next, 5 μl of dephosphorylated casein are added to a final concentration of 0.2 μg/μl, 20 μl of CK1 epsilon are added to a final concentration of 3 ng/μl, and 20 μl of ATP-^33P are added to a final concentration of 0.02 μCi/μl mixed with cold ATP (10 μM final—approximately 2×10^6 CPM per well). The final total test volume per well is equal to 50 μl.
The “U”-bottomed Falcon® test plate mentioned above is vortexed, and then incubated at ambient temperature for 2 hours. After 2 hours, the reaction is stopped by adding an ice-cold solution of 65 μl of cold ATP (2 mM) prepared in test buffer. 100 μl of the reaction mixture are then transferred from the “U”-bottomed Falcon®plate into Millipore MAPH filter plates, preimpregnated with 25 μl of ice-cold 100% TCA. […]
The plates are left to dry overnight at ambient temperature. […] The radiation emitted by each well is then measured for 2 minutes in a Packard® Topcount NXT scintillation counter, in which the values of CPM/well are measured.
The % inhibition of the capacity of the enzyme to phosphorylate the substrate (casein) is determined for each concentration of compound tested. These inhibition data expressed as percentages are used to calculate the IC50 value for each compound compared with the controls.
The kinetic studies determined the KM value for ATP as being 21 μM in this test system.

T1 sequence (P48730 whole entry): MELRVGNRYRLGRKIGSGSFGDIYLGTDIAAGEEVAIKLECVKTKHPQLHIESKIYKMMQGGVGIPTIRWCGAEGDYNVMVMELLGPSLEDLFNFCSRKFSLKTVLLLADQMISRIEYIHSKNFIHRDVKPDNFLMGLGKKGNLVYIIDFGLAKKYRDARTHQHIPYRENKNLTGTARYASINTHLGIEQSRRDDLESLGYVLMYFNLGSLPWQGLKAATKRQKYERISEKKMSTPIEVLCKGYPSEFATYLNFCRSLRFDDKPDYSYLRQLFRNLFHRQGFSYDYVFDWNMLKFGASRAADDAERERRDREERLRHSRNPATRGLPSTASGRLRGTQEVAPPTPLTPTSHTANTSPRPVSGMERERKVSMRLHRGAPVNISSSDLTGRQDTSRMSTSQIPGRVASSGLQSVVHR

Regarding `Cc1ccc(-c2nc3ccc(N4CCNCC4)nn3c2-c2ccncc2)s1` [Compound 10, 2-(5-methylthien-2-yl)-6-(piperazin-1-yl)-3-(pyridin-4-yl)imidazo[1,2-b]pyridazine], the IC50 in assay [1] is 63 to 76 nM; in assay [2], 87 nM.
Turning to `OCCN1CCN(c2ccc3nc(-c4ccc(Cl)s4)c(-c4ccncc4)n3n2)CC1` [Compound 14, 2-{4-[2-(5-chlorothien-2-yl)-3-(pyridin-4-yl)imidazo[1,2-b]pyridazin-6-yl](piperazin-1-yl)}ethanol], the IC50 in assay [1] was 93 to 163 nM; in assay [2] it was 19 nM.

Broadly, the IC50 is the point on the concentration scale where inhibition reaches its midpoint. The low end stands for higher potency, the high end for lower potency.

The values above are taken from patent US20130190314A1, “DERIVATIVES OF 6-CYCLOAMINO-2-THIENYL-3-(PYRIDIN-4-YL)IMIDAZO[1,2-b]-PYRIDAZINE AND 6-CYCLOAMINO-2-FURANYL-3-(PYRIDIN-4-YL)IMIDAZO[1,2-b]-PYRIDAZINE, PREPARATION AND THERAPEUTIC USE THEREOF” (priority 2008, published 2013).
